Experiment [1] relates to MCF7 cells. The experiment is described as follows: Multiplexed cell number, β-gal and TUNEL in MCF7. The following applies: 0.125 µM or 0.5 µM, 1-5 DT. It counts as cell-based, human. The protocol:
The viable cell number was determined by PI staining, the % of β-gal positive cells was determined using an antibody to β-gal, and the % of Tunel positive cells was determined by the incorporation of labelled dUTP. The data are plotted as the mean (+/- SD) of 2 experiments for CDK4 and CDK6 inhibitor treatment, and the mean of 6 experiments (+/- SD) for untreated samples. The duration of treatment is plotted along the x-axis in doubling times (DT) for MCF7 cells.
After treatment, cells were fixed, washed with PBS, permeabilized and β-gal was detected using anti-β-galactosidase antibody; for multiplexed assays, TUNEL staining was carried out using Roche TUNEL reagents as indicated above. Nuclei were also stained with PI for total cell counting. Plates were read in an Acumen Explorer Ex3 (TTP Labtech) and raw data were analyzed with Cellista software. Outputs were expressed as percentages of each identified subpopulation 1) positive β-gal, and 2) total cell number. The percentages of β-gal positive cells, TUNEL positive cells, and cell numbers were plotted in Microsoft Excel.

Experiment [2] relates to HR+ and HR- breast cancer cell lines. The experiment is described as follows: Proliferation after washouts (EdU Click-iT) in breast cancer lines. It counts as cell-based, human. Particulars: HR+ versus HR- breast cancer cell lines; exposure 2 hr, 24 hr or 72 hrs followed by washout. The protocol: Images were SA-β-galactosidase immunocytochemical labeling taken by fluorescent microscopy using a Leica DMiL. […] SA-β-gal Cell samples were lysed after treatment with expression was determined using the Senescence Cells 100 μL lysis buffer and transferred to a 96-well plate. Histochemical Staining Kit (Sigma, CS0030) following 30 μL of each sample were transferred into deep well the vendor 's manual. Images were taken at 100x by bright plates using TECAN-EVO Workstation. Samples were field microscopy (Leica DMiL). treated for derivatization of the metabolites of interest and internal standards. For this, 50 μL of derivatization reagent Proliferation studies after washouts (EdU Click- and 80 μL of internal standard (IS, SupplementaryTable iT®) 1), were added with multidrop, plates were vortexed for 5 mins and let sit for one hour at 4 °C. The IS used were the Cells were plated onto poly-D-lysine D or 13C-labeled commercial analogues of nine of the ten coated 96-well plates at a density of 2,000-6,000 metabolites, prepared at 25 μM in water (Supplementary viable cells per well, and treated with abemaciblib or Table 1). The derivatization reagents (from Sigma), […] washout schedule shown on Supplementary Figure 1A. […] EdU Samples were analyzed by LC-MS/MS under the detection was performed using the Click-iT High Content conditions described below. […] Cell images were captured using a Cellomics Arrayscan VTI and analyzed Analysis of the derivatized-extracted samples with the Target Activation bio-application V.3 reading in 4 was carried out with an Agilent 6460 Triple Quadrupole channels at a magnification of 10X. […] The software relative levels and sub-cellular localization of EdU were for data collection and treatment was Agilent Masshunter determined through the respective intensities and locations Workstation. Mobile phases for chromatography were: of Alexa-488 fluorescence. mobile phase A: formic acid (5 mM) and ammonium formate (10 mM) in water; mobile phase B: acetonitrile. […]

For the compound `CC(=O)c1c(C)c2cnc(Nc3ccc(N4CCNCC4)cn3)nc2n(C2CCCC2)c1=O` [palbociclib], in experiment [1], the TUNEL staining entry is “only minor increases in TUNEL staining were observed and only after longer treatment times”; the “percentage of cells with β-gal staining compared with abemaciclib” value is “lower”. Besides, the “DNA synthesis / proliferation as measured by EdU incorporation” value in experiment [2] is reported as “decrease in proliferation preferentially for HR+ cell lines; however, this effect was only observed after longer treatment times”.
Turning to `CN(C)C(=O)c1cc2cnc(Nc3ccc(N4CCNCC4)cn3)nc2n1C1CCCC1` [ribociclib], in experiment [1], the TUNEL staining result was “only minor increases in TUNEL staining were observed and only after longer treatment times”; the “percentage of cells with β-gal staining compared with abemaciclib” value is recorded as “lower”.
